34 compounds from a polymer gas permeability compilation can be followed below.

`*[Si](C)(C)c1ccc([Si](*)(C)C)cc1` (repeat unit) registered an N2 permeability of 3.39 Barrer and an O2 permeability of 14.1 Barrer.

Take `*c1cc(C)c(C)c(N2C(=O)c3ccc(Oc4cc(C)c(Oc5ccc6c(c5)C(=O)N(*)C6=O)c(C)c4C)cc3C2=O)c1C` (repeat unit): the CH4 permeability worked out at 4 Barrer, the CO2 permeability stood at 110 Barrer, the H2 permeability turned out to be 130 Barrer and the N2 permeability was 3.8 Barrer. The compound further came in with an O2 permeability of 18 Barrer.

Regarding `*Oc1ccc(C(C)(C)c2ccc(OC(=O)c3cccc(C(*)=O)c3)c(C(C)C)c2)cc1C(C)C` (repeat unit), the CH4 permeability was 0.305 Barrer, the CO2 permeability amounted to 5.16 Barrer, the H2 permeability came out at 18.9 Barrer and the N2 permeability came out at 0.273 Barrer. Besides, the O2 permeability came out at 1.64 Barrer.

`*C(=C(*)c1ccc(CCCC)cc1)c1ccccc1` (repeat unit) registered a CO2 permeability of 160 Barrer, an N2 permeability of 11 Barrer and an O2 permeability of 37 Barrer.

Turning to `*/N=C1/c2ccc(C(c3ccc4c(c3)-c3nc5cc(Oc6ccc(*)c(*)c6)ccc5n3C4=O)(C(F)(F)F)C(F)(F)F)cc2C(=O)N1*` (repeat unit), the CH4 permeability was found to be 0.54 Barrer, the CO2 permeability stood at 27.6 Barrer, the N2 permeability was 1.2 Barrer and the O2 permeability was determined as 7.9 Barrer.

The compound `*c1ccc(C(C)(C)c2ccc(N3C(=O)c4ccc(C(c5ccc6c(c5)C(=O)N(*)C6=O)(C(F)(F)F)C(F)(F)F)cc4C3=O)cc2)cc1` (repeat unit) showed a CH4 permeability of 0.698 Barrer, a CO2 permeability of 30 Barrer, an N2 permeability of 1.34 Barrer and an O2 permeability of 7.5 Barrer.

On to `*CC(O)CO*` (repeat unit), for which the CO2 permeability was found to be 0.012 Barrer, the H2 permeability was found to be 0.0228 Barrer and the O2 permeability was determined as 0.0038 Barrer.

As to `*c1c(C)cc(C)c(N2C(=O)c3ccc(C(=O)c4ccc5c(c4)C(=O)N(*)C5=O)cc3C2=O)c1C` (repeat unit), the H2 permeability worked out at 46.4 Barrer, the N2 permeability amounted to 1 Barrer and the O2 permeability turned out to be 5 Barrer.

With `*C(C(=O)OC(C)C)C(*)C(=O)OC(C)(C)C` (repeat unit), the H2 permeability came to 133 Barrer, the N2 permeability was determined as 9 Barrer and the O2 permeability amounted to 21 Barrer.

`*CC(*)C(=O)OCC` (repeat unit) came in with a CH4 permeability of 14.9 Barrer, a CO2 permeability of 176 Barrer, an H2 permeability of 60.4 Barrer and an N2 permeability of 6.46 Barrer. The same compound returned an O2 permeability of 19 Barrer.

The compound `*c1cccc(C(c2cccc(N3C(=O)c4ccc(C(=O)c5ccc6c(c5)C(=O)N(*)C6=O)cc4C3=O)c2)(C(F)(F)F)C(F)(F)F)c1` (repeat unit) registered a CH4 permeability of 0.014 Barrer and a CO2 permeability of 1.05 Barrer.

With `*c1c(C)cc(-c2cc(C)c(N3C(=O)c4ccc(Oc5cc(C)c(Oc6ccc7c(c6)C(=O)N(*)C7=O)c(C)c5C)cc4C3=O)c(C)c2)cc1C` (repeat unit), the CH4 permeability is 1.2 Barrer, the CO2 permeability came out at 39 Barrer, the H2 permeability was 55 Barrer and the N2 permeability was found to be 1.2 Barrer. The compound further displayed an O2 permeability of 6.5 Barrer.

The compound `*CC1CC(C*)C2C1C([Si](O[Si](C)(C)C)(O[Si](C)(C)C)O[Si](C)(C)C)C2[Si](O[Si](C)(C)C)(O[Si](C)(C)C)O[Si](C)(C)C` (repeat unit) came in with a CH4 permeability of 215 Barrer, a CO2 permeability of 840 Barrer, an H2 permeability of 460 Barrer and an N2 permeability of 75 Barrer. The same compound gave an O2 permeability of 220 Barrer.

As for `*Oc1ccc(C(=O)c2cccc(-c3cccc(C(=O)c4ccc(Oc5ccc(C(c6ccc(*)cc6)(C(F)(F)F)C(F)(F)F)cc5)cc4)c3)c2)cc1` (repeat unit), the CH4 permeability was 0.058 Barrer, the CO2 permeability came to 1.95 Barrer, the N2 permeability was 0.0792 Barrer and the O2 permeability was 0.61 Barrer.

Compound `*Nc1ccc(C(c2ccc(NC(=O)c3ccc(Oc4cc(C(C)(C)C)c(Oc5ccc(C(*)=O)cc5)cc4C(C)(C)C)cc3)cc2)(C(F)(F)F)C(F)(F)F)cc1` (repeat unit) registered a CH4 permeability of 1.24 Barrer, a CO2 permeability of 36 Barrer, an N2 permeability of 1.51 Barrer and an O2 permeability of 7.88 Barrer.

Turning to `*CC(*)(C)C(=O)OCCOCC` (repeat unit), the CH4 permeability was found to be 1.23 Barrer, the CO2 permeability came out at 8.56 Barrer, the N2 permeability came out at 0.385 Barrer and the O2 permeability was determined as 1.45 Barrer.

Regarding `*CC1CC(*)OCO1` (repeat unit), the H2 permeability was determined as 0.93 Barrer, the N2 permeability came out at 0.018 Barrer and the O2 permeability amounted to 0.024 Barrer.

Take `*Cc1ccc(C*)c(C)c1` (repeat unit): the CO2 permeability turned out to be 0.265 Barrer, the H2 permeability turned out to be 0.994 Barrer, the N2 permeability was determined as 0.0157 Barrer and the O2 permeability was determined as 0.0572 Barrer.

Regarding `*c1ccc(Cc2ccc(N3C(=O)c4ccc(-c5ccc6c(c5)C(=O)N(*)C6=O)cc4C3=O)cc2)cc1` (repeat unit), the CH4 permeability was 0.0532 Barrer, the CO2 permeability was 1.58 Barrer, the H2 permeability was determined as 6.35 Barrer and the N2 permeability worked out at 0.0221 Barrer. This compound also registered an O2 permeability of 0.188 Barrer.

Compound `*C(=C(*)c1ccc2c(c1)C(C)(C)c1ccccc1-2)c1cccc(F)c1` (repeat unit) returned a CH4 permeability of 11000 Barrer, a CO2 permeability of 18000 Barrer, an H2 permeability of 9900 Barrer and an N2 permeability of 4200 Barrer. Further, the O2 permeability stood at 5900 Barrer.

Take `*c1ccc(Oc2ccc(N3C(=O)c4cc(Oc5ccc(C(C)(C)C)cc5)c(-c5cc6c(cc5Oc5ccc(C(C)(C)C)cc5)C(=O)N(*)C6=O)cc4C3=O)cc2)cc1` (repeat unit): the CH4 permeability is 3.16 Barrer, the CO2 permeability came to 85.6 Barrer, the N2 permeability is 2.95 Barrer and the O2 permeability stood at 11.3 Barrer.

Consider `*c1ccc(Oc2ccc(C3(c4ccc(Oc5ccc(N6C(=O)c7ccc(C(c8ccc9c(c8)C(=O)N(*)C9=O)(C(F)(F)F)C(F)(F)F)cc7C6=O)c(C)c5)cc4)OC(=O)c4ccccc43)cc2)cc1C` (repeat unit), for which the CH4 permeability came to 0.56 Barrer, the CO2 permeability was determined as 21.4 Barrer, the N2 permeability worked out at 1.1 Barrer and the O2 permeability was found to be 5.71 Barrer.

The compound `*Oc1ccc(C2(c3ccc(Oc4ccc(S(=O)(=O)c5ccc(*)cc5)cc4)cc3)C3CC4CC(C3)CC2C4)cc1` (repeat unit) showed a CH4 permeability of 0.327 Barrer, a CO2 permeability of 7.2 Barrer, an H2 permeability of 17.3 Barrer and an N2 permeability of 0.332 Barrer. This compound gave an O2 permeability of 1.86 Barrer.

Compound `*CCCCO*` (repeat unit) came in with a CH4 permeability of 22.5 Barrer, a CO2 permeability of 170 Barrer, an H2 permeability of 36 Barrer and an N2 permeability of 8.85 Barrer. Also, the O2 permeability turned out to be 21.5 Barrer.

Compound `*c1ccc(Oc2ccc(C(c3ccccc3)(c3ccccc3)c3ccc(Oc4ccc(*)cc4)cc3)cc2)cc1` (repeat unit) gave a CH4 permeability of 0.14 Barrer, a CO2 permeability of 9.57 Barrer, an N2 permeability of 0.47 Barrer and an O2 permeability of 2.26 Barrer.

Compound `*C(C)=C(*)CCCCC` (repeat unit) returned a CH4 permeability of 51 Barrer, a CO2 permeability of 200 Barrer, an H2 permeability of 150 Barrer and an N2 permeability of 21 Barrer. Further, the O2 permeability was determined as 57 Barrer.

Consider `*c1ccc(Oc2ccc3ccccc3c2-c2c(Oc3ccc(N4C(=O)c5ccc(C(c6ccc7c(c6)C(=O)N(*)C7=O)(C(F)(F)F)C(F)(F)F)cc5C4=O)cc3)ccc3ccccc23)cc1` (repeat unit), for which the CH4 permeability worked out at 0.22 Barrer, the CO2 permeability is 15 Barrer, the H2 permeability worked out at 21.1 Barrer and the N2 permeability stood at 0.4 Barrer. The compound further displayed an O2 permeability of 2.56 Barrer.

Regarding `*c1ccc(Oc2ccc(N3C(=O)c4ccc(C(=O)c5ccc6c(c5)C(=O)N(*)C6=O)cc4C3=O)cc2)cc1` (repeat unit), the CH4 permeability worked out at 0.0109 Barrer, the CO2 permeability was found to be 0.625 Barrer, the H2 permeability was 4.19 Barrer and the N2 permeability came out at 0.0178 Barrer. The O2 permeability stood at 0.18 Barrer.

In turn, `*c1c(C)cc(C)c(N2C(=O)c3ccc(Oc4ccc(Oc5ccc6c(c5)C(=O)N(*)C6=O)cc4)cc3C2=O)c1C` (repeat unit) gave an H2 permeability of 40 Barrer, an N2 permeability of 0.732 Barrer and an O2 permeability of 4.42 Barrer.

Consider `*c1ccc(Oc2ccc(N3C(=O)c4ccc(-c5ccc6c(c5)C(=O)N(*)C6=O)cc4C3=O)cc2)cc1` (repeat unit), for which the CH4 permeability was found to be 0.018 Barrer, the CO2 permeability came out at 0.921 Barrer, the H2 permeability is 3.5 Barrer and the N2 permeability is 0.0215 Barrer. In addition, the O2 permeability came out at 0.174 Barrer.

`*c1cc2c(cc1C)-c1cc(C)c(N3C(=O)c4ccc(C(c5ccc6c(c5)C(=O)N(*)C6=O)(C(F)(F)F)C(F)(F)F)cc4C3=O)cc1S2(=O)=O` (repeat unit): the CH4 permeability was determined as 1.74 Barrer, the CO2 permeability was found to be 73.5 Barrer, the H2 permeability came to 156 Barrer and the N2 permeability was found to be 3.27 Barrer. This compound also gave an O2 permeability of 16.5 Barrer.

The compound `*Oc1ccc(C(C)(C)c2ccc(Oc3ccc(C(=O)c4ccc(C(C)(C)c5ccc(C(=O)c6ccc(*)cc6)cc5)cc4)cc3)cc2)cc1` (repeat unit) yielded a CH4 permeability of 0.22 Barrer, a CO2 permeability of 4.4 Barrer, an H2 permeability of 12.4 Barrer and an N2 permeability of 0.21 Barrer. In addition, the O2 permeability turned out to be 1.1 Barrer.

In the case of `*C(C)=C(*)C(C)C` (repeat unit), the CH4 permeability came out at 2690 Barrer, the CO2 permeability amounted to 10700 Barrer, the H2 permeability was 5720 Barrer and the N2 permeability amounted to 1250 Barrer. Besides, the O2 permeability is 2700 Barrer.

Compound `*O[Si](*)(C)CCC` (repeat unit) displayed a CH4 permeability of 570 Barrer, a CO2 permeability of 2300 Barrer, an N2 permeability of 182 Barrer and an O2 permeability of 394 Barrer.
